Values quoted from earlier work in US20240252431A1, “PULMONARY BIGUANIDE FORMULATIONS AND DELIVERY DEVICES” (Onconox Inc., priority 2021, published 2024).

What was measured:
[1] = system: radiation induced pneumonitis; details: in vivo
[2] = system: lung fibrosis elicited by bleomycin; details: mouse bleomycin model; treatment starting three weeks after lung injury, continuing five weeks

CN(C)C(=N)N=C(N)N [Metformin, metformin]
effect on radiation induced pneumonitis [1]: protect against radiation induced pneumonitis | effect on established lung fibrosis [2]: reverse established lung fibrosis
